From US12545649B2, “WDR5-MYC inhibitors” (Vanderbilt University, priority 2019, dated 2026) come the findings set out here.

By Ki is commonly meant a measure of affinity in units of concentration, obtained from inhibition or displacement. Low readings indicate a stronger hold on the target, high ones a looser hold on the target.

In one experiment the target is T1, WDR5 (Homo sapiens, UniProt P61964). Briefly: Competition-based fluorescence polarization anisotropy (FPA) assay. The format is binding. The settings on record: FITC small molecule probe. On the procedure:
(Thomas, […], et al, Molecular Cell 2015 (58): 440-452). Fluorescence polarization measurements were performed in 384-well plates (Greiner Bio One) using a Cytation 3 plate reader (BioTek). […] […] The assay buffer contained 200 mM phosphate, 300 mM NaCl, and 0.5 mM TCEP and 0.1% Chaps at pH 6.0. Compounds were serially diluted in assay buffer at a top concentration sufficient to yield a 9-point dose-response curve.
Turning to `O=S(=O)(Nc1cn(C(C2CC2)C2CC2)cn1)c1cc(Br)cc(Cl)c1O` [Example 18, 5-Bromo-3-chloro-N-(1-(dicyclopropylmethyl)-1-imidazol-4-yl)-2-hydroxybenzenesulfonamide], the Ki was 970 nM. The molecule `O=S(=O)(Nc1cn(CC2CCCO2)cn1)c1cc(Br)cc(Cl)c1O` (centres unmarked) [Example 15, 5-Bromo-3-chloro-2-hydroxy-N-(1-((tetrahydrofuran-2-yl)methyl)-1H-imidazol-4-yl)benzenesulfonamide] had a Ki of 4030 nM. Turning to `Cc1nc(NS(=O)(=O)c2cc(Br)cc(Cl)c2O)cn1C1CCC1` [Example 17, 5-Bromo-3-chloro-N-(1-cyclobutyl-2-methyl-1-imidazol-4-yl)-2-hydroxybenzenesulfonamide], the Ki amounted to 660 nM. `O=S(=O)(Nc1cn(C2CCCC2)cn1)c1cc(Br)cc(Cl)c1O` [Example 1, 5-Bromo-3-chloro-N-(1-cyclopentyl-1H-imidazol-4-yl)-2-hydroxybenzenesulfonamide] displayed a Ki of 160 nM. The molecule `O=S(=O)(Nc1cn(C2CCNC2)cn1)c1cc(Br)cc(Cl)c1O` (centres unmarked) [Example 31, 5-Bromo-3-chloro-2-hydroxy-N-(1-(pyrrolidin-3-yl)-1H-imidazol-4-yl)benzenesulfonamide] yielded a Ki of 10300 nM.

`O=S(=O)(Nc1nc2ccc(OC(F)(F)F)cc2s1)c1cc(Br)cc(Cl)c1O` [Example 40, 5-Bromo-3-chloro-2-hydroxy-N-(6-(trifluoromethoxy)benzo[d]thiazol-2-yl)benzenesulfonamide] displayed a Ki of 3900 nM. Take `O=S(=O)(Nc1cn(CC2CC2)cn1)c1cc(Br)cc(Cl)c1O` [Example 5, 5-Bromo-3-chloro-N-(1-(cyclopropylmethyl)-1H-imidazol-4-yl)-2-hydroxybenzenesulfonamide]: the affinity, expressed as Ki, was 820 nM. On the same count and under the same terms, the same measure for `O=S(=O)(Nc1cc(-c2ccccc2)[nH]n1)c1cc(Br)cc(Cl)c1O` [Example 35, 5-Bromo-3-chloro-2-hydroxy-N-(5-phenyl-1H-pyrazol-3-yl)benzenesulfonamide]: 1100 nM; for `O=C(c1nc(NS(=O)(=O)c2cc(Br)cc(Cl)c2O)cn1C1CCCC1)N1CCC(C2CCNC2)CC1` (centres unmarked) [Example 54, 5-Bromo-3-chloro-N-(1-cyclopentyl-2-(4-(pyrrolidin-3-yl)piperidine-1-carbonyl)-1H-imidazol-4-yl)-2-hydroxybenzenesulfonamide]: 990 nM. `O=S(=O)(Nc1cn(CC2CCCO2)cn1)c1cc(Br)ccc1O` (centres unmarked) [Example 16, 5-Bromo-2-hydroxy-N-(1-((tetrahydrofuran-2-yl)methyl)-1H-imidazol-4-yl)benzenesulfonamide] came in with a Ki of 19200 nM. Molecule `O=S(=O)(Nc1nc2ccccc2s1)c1cc(Br)cc(Cl)c1O` [Example 37, N-(Benzo[d]thiazol-2-yl)-5-bromo-3-chloro-2-hydroxybenzenesulfonamide] showed an inhibitory constant (Ki) of 120 nM.

The subject of a further experiment is MYC. Briefly: ChIP: disruption of binding of MYC to chromatin. The note with it: HEK293 cells expressing HA-tagged MYC, 20 μM, 10 h. The experiment is classed as cell-based. As for the experimental part:
(§1) HEK293 cells expressing HA-tagged MYC and GFP were plated in growth media. Upon reaching approximately 70% confluence, cells were washed once with PBS then treated for 10 h with 20 μM compound in OptiMEM media. Cells were cross linked at room temperature in PBS containing 1% Formaldehyde for 10 minutes, then cells were scraped into 1.5 mL PBS supplemented with 125 mM Glycine. Cells were collected by centrifugation, washed once with PBS+125 mM Glycine, and pellets stored frozen. Chromatin was prepared by lysing cells at 80×10^6 per mL in ChIP Lysis Buffer (50 mM Tris pH 8.0, 140 mM NaCl, 1 mM EDTA, 1% Triton, 1% SDS and supplemented with protease inhibitor cocktail), Samples were sonicated (BioRuptor) for 30 minutes and cleared by centrifugation. Precipitation was performed essentially as described [Thomas L R 2015 Mol Cell] by diluting chromatin 1:9 in ChIP buffer without SDS. Decrosslinked DNA was diluted to 500 μL with water and 7.5 μL was used for each qPCR reaction. Percent input was calculated by comparison to a 30-fold dilution of decrosslinked chromatin. Primers used for ChIP have been described in Thomas, L. R.; Adams, C. M.; Wang, J.; Weissmiller, A. M.; Creighton, J.; Lorey, S. L.; Liu, Q.; Fesik, S. W.; Eischen, C. M.; Tansey, W. P. Interaction of the Oncoprotein Transcription Factor MYC with its Chromatin Cofactor WDR5 is Essential for Tumor Maintenance. […]
Turning to `CS(=O)(=O)c1nc(NS(=O)(=O)c2cc(Br)cc(Cl)c2O)cn1C1CCCC1` [Example 26, 5-Bromo-3-chloro-N-(1-cyclopentyl-2-(methylsulfonyl)-1H-imidazol-4-yl)-2-hydroxybenzenesulfonamide], the “amount of MYC at ZFPM1 and ZMF771 (MYC binding independent of WDR5)” value is “nearly unaffected”; the “amount of MYC at loci where MYC recruitment is dependent on WDR5 (C7orf40, RNPS1, RPS14, and RPL5)” value is on record as “reduction”.

For the next experiment, the target named is T1, WDR5. In words: ChIP for WDR5 binding to chromatin. The experiment is classed as cell-based. The note with it: HEK293 cells, 20 μM, 10 h. On the procedure:
as §1
For `CS(=O)(=O)c1nc(NS(=O)(=O)c2cc(Br)cc(Cl)c2O)cn1C1CCCC1` [Example 26, 5-Bromo-3-chloro-N-(1-cyclopentyl-2-(methylsulfonyl)-1H-imidazol-4-yl)-2-hydroxybenzenesulfonamide], the “WDR5 levels at these loci (ChIP for WDR5) versus negative control compound” value is “comparable levels”.
